Test system in the first experiment: not listed separately
Briefly: Inhibition of YTHDF (unknown origin). Further details: species or system Homo sapiens.
On to `CCN(CC)CCn1sc2ccccc2c1=O`, for which a half-maximal effect (EC50) was put at 1.69 µM.
The same measure, in the same setting: the result for `O=c1c2ccccc2sn1CCN1CCOCC1` reads 2.83 µM; that for `O=c1c2ccccc2[se]n1-c1ccccc1` [EBSELEN], 1.5 µM.

In the next experiment the target is T1, YTH domain-containing family protein 2 (Homo sapiens, UniProt Q9Y5A9).
T1 sequence (Q9Y5A9 whole entry): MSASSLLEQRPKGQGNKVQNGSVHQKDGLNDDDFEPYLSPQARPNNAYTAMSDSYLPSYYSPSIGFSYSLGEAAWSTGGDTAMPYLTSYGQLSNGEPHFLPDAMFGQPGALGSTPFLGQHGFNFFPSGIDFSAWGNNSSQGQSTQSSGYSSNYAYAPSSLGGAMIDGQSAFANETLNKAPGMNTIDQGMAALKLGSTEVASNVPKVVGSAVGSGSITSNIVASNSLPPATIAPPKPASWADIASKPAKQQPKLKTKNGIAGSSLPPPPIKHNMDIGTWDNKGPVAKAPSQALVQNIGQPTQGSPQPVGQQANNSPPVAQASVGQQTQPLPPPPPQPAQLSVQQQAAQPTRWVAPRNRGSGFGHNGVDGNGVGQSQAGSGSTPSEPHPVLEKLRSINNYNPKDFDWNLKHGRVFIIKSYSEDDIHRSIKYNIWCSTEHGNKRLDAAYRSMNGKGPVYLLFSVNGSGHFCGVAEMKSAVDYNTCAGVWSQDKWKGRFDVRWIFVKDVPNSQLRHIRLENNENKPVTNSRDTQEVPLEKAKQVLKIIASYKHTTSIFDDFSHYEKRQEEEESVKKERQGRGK
As to the kind of experiment: Inhibition of YTHDF2 YTH domain (unknown origin) (383 to 579 residues) expressed as Escherichia coli BL21 (DE3) Rosetta cells by HTFR based binding assay.
`CNc1ncnc2c(-c3ccccc3)[nH]nc12`: the 50% inhibitory concentration (IC50) (commonly the concentration at which inhibition is half-maximal) was 491 µM.
Still for that read-out and setting: in the case of `Cn1c(=O)cc(C2CC2)[nH]c1=O` it was 161 µM; in that of `CNc1ncnc2c(C)[nH]nc12`, 174 µM.
The same measure, in the same setting: in the case of `O=c1cc(C2CC2)[nH]c(=O)[nH]1` it was 410 µM.
